Our source for the logP values is the OPERA property sets (Mansouri et al. 2018).

Broadly, the logP is the decadic logarithm of the partition coefficient of the neutral form, usually between octanol and water. Read a low logP as lower lipophilicity. On to `COc1ccc(COc2ccccc2C(N)=O)cc1`, for which the logP came out at 1.63. For the molecule `ClC1=C(Cl)C2(Cl)C3C4OC4C(Cl)C3C1(Cl)C2(Cl)Cl` (configuration not stated), the logP was 4.98. With `COc1cc(Cc2cnc(N)nc2N)ccc1N(C)C` the figure was 1.87.

The molecule `CCCCCCCCCC[N+](C)(C)C.[I-]` showed a logP of -0.16. The result for `O=[N+]([O-])O[C@@H]1CO[C@H]2[C@@H]1OC[C@@H]2O` reads -0.15; that for `CCCCOC(=O)COc1cc(Cl)c(Cl)cc1Cl`, 4.81; that for `Cc1cc(=O)n2c(n1)CCCC2C` (configuration not stated), 0.67. `Cc1cnc2n(c1=O)CCCC2` yielded a logP of 0.12.

`COc1cccc2c1C(=O)c1c(O)c3c(c(O)c1C2=O)C[C@@](O)(C(C)=O)C[C@@H]3O[C@H]1C[C@H](N)[C@H](O)[C@H](C)O1` yielded a logP of 1.83.

For the molecule `Nc1ncnc2c1ncn2[C@H]1CC[C@@H](CO)O1`, the logP is -0.25. Take `COc1cc(Cc2cnc(N)nc2N)c(I)c(OC)c1OC`: the logP amounted to 1.79. The molecule `O=C(O)c1ccc(Cl)cc1Nc1ccc(Cl)cc1` returned a logP of 4.97. In turn, `C=C1C(=O)OC2CC3(C)CCCC(C)C3=CC12` (configuration not stated) displayed a logP of 3.38. In turn, `O=C(COc1ccc(OCCNCC(O)COc2ccccc2)cc1)N1CCc2ccccc2C1` (configuration not stated) had a lipophilicity (logP) of 3.6. The result for `CCCOC(=O)C(C(=O)OCCC)=C1SCCS1` reads 3.35. The result for `CCc1nc(N)nc(N)c1-c1ccc(Cl)c(Cl)c1` reads 3.03. For `O=C(O)Cc1ccc(C2CCCC2)cc1`, the logP is 3.44. The result for `CC1OC(OC2CCC3(C=O)C4CCC5(C)C(C6=CC(=O)OC6)CCC5(O)C4CCC3(O)C2)C(O)C(O)C1O` (configuration not stated) reads -0.48. `CCN1CC(C(O)C(CC2CCCCC2)NC(=O)C(Cc2cnc[nH]2)NC(=O)C(Cc2ccc(OC)cc2)NC(=O)N2CC(O)C(O)C2)OC1=O` (configuration not stated) gave a logP of 1.22. Consider `CCc1ccc(NC(=O)CN2CCCCC2)cc1`, for which the logP amounted to 3.52. With `CC1(C)NC(=Nc2ncc([N+](=O)[O-])s2)OC1(C)C`, the logP stood at 2.4. `O=C1C2C3C=CC(C3)C2C(=O)N1CCCCN1CCN(c2ncccn2)CC1` (configuration not stated) returned a logP of 1.36.

With `CC(C)Oc1ccc(C(=O)c2ccc3n2CCC3C(=O)O)cc1` (configuration not stated), the log partition coefficient (logP) was determined as 3.38. As for `COC(=O)/C=C/Oc1ccccc1`, the logP was found to be 2.68. With `CCCC(O)C(=O)O` (configuration not stated), the logP worked out at 0.45. The result for `Cc1cc2ccccc2o1` reads 3.22; that for `CCOc1ccc(Cc2cnc(N)nc2N)cc1OCC`, 1.72.

The molecule `CCc1cc(CC)cc(C2C(=O)c3ccccc3C2=O)c1` returned a logP of 4.94.

The molecule `COc1ccc(C2C(=O)c3ccccc3C2=O)cc1` gave a log partition coefficient (logP) of 2.88. The result for `CCN(CC)CCCC(=O)Nc1c(C)cccc1C` reads 2.06; that for `O=C(O)c1ccc(Cl)cc1Nc1cccc(Br)c1`, 5.16. As for `Cc1ccc(F)cc1NC1=NCCN1`, the logP amounted to 1.41. Turning to `O=C(O)C=Cc1ccc2c(c1)OCO2`, the logP stood at 2.59. For `OC(Cn1ccnc1)(c1ccc(F)cc1)c1ccc(-c2ccccn2)cc1` (configuration not stated), the logP was 3.58. The result for `CC(C(=O)O)c1ccc(N2Cc3ccccc3C2=O)cc1` (configuration not stated) reads 2.77; that for `CC(C)(C)c1cccc(O)c1`, 3.3; that for `Cc1[nH]c2ccccc2c1C`, 3.05. Turning to `O=C(O)CN1C(=O)C=CC1=O`, the logP was -0.14.

Take `O=C(CBr)c1ccccc1`: the logP amounted to 2.19. As for `CCC(C(=O)OCc1ccccc1)C(CO)Cc1cncn1C` (configuration not stated), the logP turned out to be 1.97. The result for `CN(C)c1nc(N(C)C)nc(N(C)O)n1` reads 1.61; that for `C=C(C)C(=O)OCCCOC(=O)C(=C)C`, 1.86; that for `C=CCC(NC(=O)C(Cc1ccccc1)NS(=O)(=O)N1CCN(C)CC1)C(=O)NC(CC1CCCCC1)C(=O)C(F)(F)C(=O)NCCN1CCOCC1` (configuration not stated), 2.73. With `COC(=O)c1ccc(CN(C)N=O)cc1` the figure was 1.21. The result for `O=C1c2ccccc2C(=O)C1c1cccc(C(F)(F)F)c1` reads 3.78; that for `c1ccc(-c2ncc3ccccc3n2)cc1`, 3.42; that for `CC(=O)OCCCN1C(=O)C(OC(C)=O)N=C(c2ccccc2)c2cc(Cl)ccc21` (configuration not stated), 3.08. Molecule `CCCC(=O)OCC(=O)C1(O)CCC2C3CCC4=CC(=O)CCC4(C)C3C(O)CC21C` (configuration not stated) came in with a logP of 2.91. With `CCC1(CC)C(=O)N=C(OC(C)C)NC1=O` the figure was 1.44; with `COc1cc(CCN)cc(OC)c1OCc1ccccc1`, 2.4; with `CCc1ccc(C2C(=O)c3ccccc3C2=O)cc1`, 3.92. The result for `Cc1ncsc1CCCl` reads 2.12; that for `OCc1cc(Cl)ccc1O`, 1.44. With `Oc1ccc2[nH]ccc2c1` the figure was 1.11. In turn, `CN(C)[C@@H]1C(O)=C(C(N)=O)C(=O)[C@@]2(O)C(O)=C3C(=O)c4c(O)ccc(Cl)c4[C@@](C)(O)[C@H]3C[C@@H]12` had a logP of -0.62. With `CCOP(=O)(NC)ON=C(C#N)c1ccc(Cl)cc1` (configuration not stated) the figure was 2.5; with `CC(C)c1cc(C(C)C)cc(C2C(=O)c3ccccc3C2=O)c1`, 5.96. As to `CCCOC(=O)c1ccccc1Cl`, the logP turned out to be 3.45. With `CC(=O)NCc1cccc(OCC(O)CNC(C)C)c1` (configuration not stated) the figure was 0.34. Consider `CCC(C(=O)OCc1ccccc1)C(COC(=O)c1cccnc1)Cc1cncn1C` (configuration not stated), for which the logP was determined as 3.05. The result for `CC1OC(OC2C(O)CC(OC3C(O)CC(OC4CCC5(C)C(CCC6C5CCC5(C)C(C7=CC(=O)OC7)C(O)CC65O)C4)OC3C)OC2C)CC(O)C1O` (configuration not stated) reads 1.67; that for `CCCCC(CCCC)C(=O)O`, 3.2; that for `OC(Cn1ccnc1)(c1ccc(F)cc1)c1cccc(-c2ccncc2)c1` (configuration not stated), 2.91. The result for `C=C1C(=O)OC2C1C(OC(=O)C=C(C)C)CC1=CC(CC3(C)OC23)OC1=O` (configuration not stated) reads 1.05; that for `Clc1ccc(Br)cc1NC1=NCCN1`, 2.05; that for `CCN1CCCCC1`, 1.75.

On to `CC12CCC(=O)C=C1CCC1C3CCC4(CCC(=O)O4)C3(C)CC(O)C12F` (configuration not stated), for which the logP worked out at 2.4. In the case of `CCCCCC(CCC)C(=O)O` (configuration not stated), the log partition coefficient (logP) turned out to be 3.2. The result for `OCc1cccc2ccccc12` reads 2.37.

`Oc1cc2ccccc2cc1O` showed a logP of 2.24. Molecule `CCCNC(=O)COc1ccc(OCCNCC(O)COc2ccccc2)cc1` (configuration not stated) returned a log partition coefficient (logP) of 2.4. The result for `COc1cc(OC)cc(C2C(=O)c3ccccc3C2=O)c1` reads 2.86; that for `CO[C@@]1(NC(=O)CSCC#N)C(=O)N2C(C(=O)O)=C(CSc3nnnn3C)CS[C@@H]21`, -0.6. As to `O=CC1=CC=C2C(C(=O)O)CCN2c2cc(Br)ccc21` (configuration not stated), the logP was 3.6. The molecule `CNC(=O)NS(=O)(=O)c1ccc(Cl)cc1` returned a logP of 1.16. The result for `CC(=O)Oc1cc(OC(C)CCCc2ccccc2)cc2c1C1CC(O)CCC1C(C)N2C` (configuration not stated) reads 5.72; that for `COc1cccc(/C=C/C(=O)O)c1`, 2.37; that for `CC1=C(C(=O)Nc2ccccc2-c2ccccc2)SCCO1`, 2.54. Take `C=C(C)C(=O)OCC(F)(F)F`: the logP is 1.56. With `Cc1ccc(Cl)c(N=C2NCCN2)c1` the figure was 1.83.

The molecule `CCCCCCCCCCC(C)(C)c1ccc(C2CCCC(O)C2)c(O)c1` (configuration not stated) showed a logP of 8.42. The result for `c1cc2cccc3c4cccc5cccc(c(c1)c23)c54` reads 6.25.
